Data taken from patent US10407445B2, “Hepatitis C virus inhibitors” (ENANTA PHARMACEUTICALS, INC., priority 2013, dated 2019).

How the values were obtained:
Format in all cases: cell-based
HCV GT 2a-J6 replicon = test: HCV replicon assay, GT2a chimeric replicon expressing NS5A from GT2a strain J6; details: Hepatitis C virus, 72 h, read-out: EC50 2a J6
Experimental: The activity of compounds was determined against HCV replicons representing genotypes (GT) 1a, 1b, 2a, and 3a. To generate stable Huh-7.5-based cell lines, HCV replicons were engineered to express the Renilla luciferase reporter (hRluc) fused to the neomycin phosphotransferase (Neo) gene. GT2a and GT3a HCV replicons were based on the JFH-1 subgenomic replicon (Kato et al. 2003 Gastroenterology, 125:1808-1817), in which the NS5A gene was replaced with that of strains J6 and S52 (GT2a and G3a, respectively). The activity of compounds against GT1a replicons encoding NS5A mutations (M28T, Q30R, L31M, Y93C, and Y93H) was also determined in a transient replication assay. The parental GT1a and GT2a replicons (pH/SG-Neo(L+I) and pSG-Neo-JFH1, respectively) were licensed from Apath LLC (Saint Louis, Mo.). The parental GT 1b replicon (pFKi389lucubineo_3_3′_ET) was licensed from ReBLikon GmbH (Germany). HCV replicons were constructed by standard molecular biology techniques described below. All replicon constructs were verified by restriction enzyme digestion and DNA sequencing.
The plasmid pSG-hRlucNeo-JFH1 was generated from pSG-Neo-JFH1 (Kato et al. 2003, Gastroentrology 125:1808-1817). A fragment containing the JFH-1 5′ NTR—hRluc-Neo gene and two unique restriction sites (AgeI and PmeI) was synthesized (Integrated DNA Technologies, Coralville, Iowa). The resulting synthetic plasmid was digested with AgeI and PmeI and the excised fragment (5′NTR-hRluc-Neo) was ligated into pSG-Neo-JFH1 digested with the same enzymes to generate pSG-hRlucNeo-JFH1. To allow expression of heterologous NS5A sequences, an NS5A shuttle vector was generated from pSG-Neo-JFH1, in which the entire coding sequence of NS5A plus the first eight codons of NS5B were replaced with an AfeI restriction site. This was done by Infusion cloning (Clontech, Mountain View, Calif.) from two PCR products that were generated using pSG-Neo-JFH1 as a template and the following primer pairs:
Underlined sequences denote regions of overlap necessary for Infusion cloning. Purified PCR products were cloned directly into an NsiI/SnaBI digested pSG-Neo-JFH1 following the manufacturer's instructions to generate pSG-Neo-JFH1-5Ashuttle. The 2023 base pair AgeI/PmeI fragment from pSG-hRlucNeo-JFH1 was then ligated into pSG-Neo-JFH1-5Ashuttle to generate pSG-hRlucNeo-JFH1-5Ashuttle. To generate the 2a-2a-(J6) and 2a-3a-(S52) NS5A chimeric replicons, the full length NS5A sequences from GT2a strain J6 (accession AF177036) and GT3a strain S52 (accession GU814263), with the addition of the first eight codons of JFH-1 NS5B (5′-TCCATGTCATACTCCTGGACCGGG-3′), were synthesized by GeneArt (Life Technologies, Carlsbad Calif.). J6 and S52 NS5A sequences were then PCR amplified from the synthetic clones using the appropriate forward primer:
Underlined sequences denote regions of overlap with pSG-hRlucNeo-JFH1-5Ashuttle necessary for Infusion cloning. Purified PCR products were directly cloned into AfeI-digested shuttle vector by Infusion cloning following the manufacturer's instructions.
Stable HCV replicon cell lines were grown in complete media (Dulbecco's modified Eagle medium [DMEM], 2 mM L-glutamine, 0.1 mM essential amino acids, 1 mM sodium pyruvate, 10% heat inactivated fetal bovine serum) with the addition 500 μg/ml […] (G418). Huh7-lunet cells were maintained in the same medium without the addition of G418. Cells were routinely passaged at a dilution of 1:4 two times a week. The assay medium for both luciferase reporter HCV replicon and cytotoxicity assays used phenol red-free DMEM and lacked G418. For each stable replicon assay, a sixteen point half-log dilution series of compound was stamped (0.5 ul compound per well) into three replica 384-well plates, to which cells were added directly (4000 cells/well). […]

[1] = test system: GT1a replicon encoding NS5A mutation Y93H; test: Transient replication assay, GT1a replicon with NS5A mutation Y93H; details: Hepatitis C virus, read-out: EC50 1a Y93H
[2] = test system: GT1a replicon encoding NS5A mutation M28T; test: Transient replication assay, GT1a replicon with NS5A mutation M28T; details: Hepatitis C virus, read-out: EC50 1a M28T

Structure (SMILES)	EC50 (HCV GT 2a-J6 replicon)	EC50 [1]	EC50 [2]
COC(=O)N[C@H](C(=O)N1C[C@@]2(CCOC2)C[C@H]1c1ncc(-c2ccc(-c3ccc4c(ccc5nc([C@@H]6CCCN6C(=O)[C@@H](NC(=O)OC)C(C)C)[nH]c54)c3)cc2)[nH]1)C(C)C [Compound 50]	13 nM	7 nM	0.5 nM
COC(=O)N[C@H](C(=O)N1C[C@]2(CCCOC2)C[C@H]1c1nc2ccc3cc(-c4ccc5c(ccc6nc([C@@H]7C[C@@H]8COC[C@@H]8N7C(=O)[C@@H](NC(=O)OC)C(C)C)[nH]c65)c4)ccc3c2[nH]1)C(C)C [Compound 36]	0.3 nM	8 nM	0.08 nM
COC(=O)N[C@H](C(=O)N1C[C@]2(CCCO2)C[C@H]1c1ncc(-c2ccc(-c3ccc4c(ccc5nc([C@@H]6CCCN6C(=O)[C@@H](NC(=O)OC)C(C)C)[nH]c54)c3)cc2)[nH]1)C(C)C [Example 81]	45 nM	15 nM	0.3 nM
COC(=O)N[C@H](C(=O)N1[C@H](c2nc3ccc4cc(-c5ccc(-c6cnc([C@@H]7C[C@@]8(CCCOC8)CN7C(=O)[C@H](NC(=O)OC)C7C[C@@H](C)O[C@H](C)C7)[nH]6)cc5)ccc4c3[nH]2)C[C@@H]2CCCC[C@@H]21)C(C)C (stereo in doubt) [Compound 39]	41 nM	213 nM	0.4 nM
COC(=O)N[C@H](C(=O)N1C[C@]2(CCCOC2)C[C@H]1c1ncc(-c2ccc3cc4cc(-c5cnc([C@@H]6C[C@@H]7CCCC[C@@H]7N6C(=O)[C@@H](NC(=O)OC)C(C)C)[nH]5)ccc4cc3c2)[nH]1)C(C)C [Compound 13]	17 nM	9 nM	0.02 nM
COC(=O)N[C@H](C(=O)N1CCC[C@H]1c1ncc(-c2ccc(-c3ccc4c(c3)OCc3nc([C@@H]5C[C@@]6(CCCOC6)CN5C(=O)[C@@H](NC(=O)OC)C(C)C)[nH]c3-4)cc2)[nH]1)C(C)C [Compound 33]	1 nM	4 nM	0.3 nM
COC(=O)N[C@H](C(=O)N1C[C@]2(CCOC2)C[C@H]1c1ncc(-c2ccc(-c3ccc4c(ccc5nc([C@@H]6CCCN6C(=O)[C@@H](NC(=O)OC)C(C)C)[nH]c54)c3)cc2)[nH]1)C(C)C [Compound 26]	22 nM	42 nM	3 nM
COC(=O)N[C@H](C(=O)N1CC2(CCOCC2)C[C@H]1c1ncc(-c2ccc(-c3ccc4c(ccc5nc([C@@H]6CCCN6C(=O)[C@@H](NC(=O)OC)C(C)C)[nH]c54)c3)cc2)[nH]1)C(C)C [Example 83]	32 nM	26 nM	0.9 nM
COC(=O)N[C@H](C(=O)N1C[C@]2(CCCOC2)C[C@H]1c1ncc(-c2ccc3c(c2)COc2cc(-c4cnc([C@@H]5C[C@@H]6CCCC[C@@H]6N5C(=O)[C@@H](NC(=O)OC)C(C)C)[nH]4)ccc2-3)[nH]1)C(C)C [Compound 15]	1 nM	5 nM	0.01 nM
COC(=O)N[C@H](C(=O)N1C[C@]2(CCCOC2)C[C@H]1c1ncc(-c2ccc(-c3ccc4c(c3)OCc3nc([C@@H]5C[C@@H]6CCCC[C@@H]6N5C(=O)[C@@H](NC(=O)OC)C(C)C)[nH]c3-4)cc2)[nH]1)C(C)C [Compound 42]	2 nM	16 nM	0.2 nM
COC(=O)N[C@H](C(=O)N1C[C@]2(CCCOC2)C[C@H]1c1ncc(-c2ccc(-c3ccc4c(c3)OCc3nc([C@@H]5CCCN5C(=O)[C@@H](NC(=O)OC)C(C)C)[nH]c3-4)cc2)[nH]1)C(C)C [Compound 30]	1 nM	13 nM	0.6 nM
COC(=O)N[C@H](C(=O)N1C[C@@]2(CCCO2)C[C@H]1c1ncc(-c2ccc(-c3ccc4c(ccc5nc([C@@H]6CCCN6C(=O)[C@@H](NC(=O)OC)C(C)C)[nH]c54)c3)cc2)[nH]1)C(C)C [Example 82]	40 nM	5 nM	14 nM
COC(=O)N[C@H](C(=O)N1C[C@]2(CCCOC2)C[C@H]1c1ncc(-c2ccc(-c3ccc4c(ccc5nc([C@@H]6C[C@@H]7C[C@@H]7N6C(=O)[C@@H](NC(=O)OC)C(C)C)[nH]c54)c3)cc2)[nH]1)C(C)C [Compound 20]	23 nM	18 nM	0.9 nM
COC(=O)N[C@H](C(=O)N1CCC[C@H]1c1ncc(-c2ccc(-c3ccc4c(ccc5nc([C@@H]6CCCN6C(=O)[C@@H](NC(=O)OC)C(C)C)[nH]c54)c3)cc2)[nH]1)C(C)C [Example 102]	1 nM	22 nM	1 nM
COC(=O)N[C@H](C(=O)N1CCC[C@H]1c1nc2c([nH]1)-c1ccc(-c3ccc4c(ccc5nc([C@@H]6C[C@@]7(CCCOC7)CN6C(=O)[C@@H](NC(=O)OC)C(C)C)[nH]c54)c3)cc1OC2)C(C)C [Compound 25]	0.8 nM	7 nM	0.5 nM
COC(=O)N[C@H](C(=O)N1CCC[C@H]1c1nc2ccc(C#Cc3ccc4c(ccc5nc([C@@H]6CCCN6C(=O)[C@@H](NC(=O)OC)C(C)C)[nH]c54)c3)cc2[nH]1)C(C)C [Example 103]	16 nM	112 nM	6 nM
COC(=O)N[C@H](C(=O)N1C[C@]2(CCCCO2)C[C@H]1c1nc(-c2ccc(-c3ccc4c(ccc5nc([C@@H]6CCCN6C(=O)[C@@H](NC(=O)OC)C(C)C)[nH]c54)c3)cc2)c[nH]1)C(C)C [Example 2]	27 nM	9 nM	0.1 nM
COC(=O)N[C@H](C(=O)N1C[C@@]2(CCCCO2)C[C@H]1c1nc(-c2ccc(-c3ccc4c(ccc5nc([C@@H]6CCCN6C(=O)[C@@H](NC(=O)OC)C(C)C)[nH]c54)c3)cc2)c[nH]1)C(C)C [Example 3]	267 nM	6 nM	6 nM
COC(=O)N[C@H](C(=O)N1C[C@]2(CCCOC2)C[C@H]1c1ncc(-c2ccc3c(ccc4cc(-c5cnc([C@@H]6C[C@@H]7CCCC[C@@H]7N6C(=O)[C@@H](NC(=O)OC)C(C)C)[nH]5)ccc43)c2)[nH]1)C(C)C [Compound 17]	22 nM	5 nM	0.008 nM
COC(=O)N[C@H](C(=O)N1CCC[C@H]1c1nc2ccc3cc(-c4ccc5c(ccc6nc([C@@H]7CCCN7C(=O)[C@@H](NC(=O)OC)C(C)C)[nH]c65)c4)ccc3c2[nH]1)C(C)C [Example 101]	0.1 nM	25 nM	1 nM
COC(=O)N[C@H](C(=O)N1C[C@]2(CCCOC2)C[C@H]1c1ncc(-c2ccc(-c3ccc4c(c3)CCCc3nc([C@@H]5C[C@@H]6CCCC[C@@H]6N5C(=O)[C@@H](NC(=O)OC)C(C)C)[nH]c3-4)cc2)[nH]1)C(C)C [Compound 40]	55 nM	8 nM	0.6 nM
COC(=O)N[C@H](C(=O)N1C[C@@]2(CCOC2)C[C@H]1c1ncc(-c2ccc(-c3ccc4c(ccc5nc([C@@H]6C[C@]7(CCOC7)CN6C(=O)[C@@H](NC(=O)OC)C(C)C)[nH]c54)c3)cc2)[nH]1)C(C)C [Compound 49]	23 nM	12 nM	1 nM
COC(=O)N[C@H](C(=O)N1C[C@@]2(CCCOC2)C[C@H]1c1ncc(-c2ccc(-c3ccc4c(ccc5nc([C@@H]6CCCN6C(=O)[C@@H](NC(=O)OC)C(C)C)[nH]c54)c3)cc2)[nH]1)C(C)C [Compound 27]	50 nM	1 nM	0.03 nM
